Experimental data reported in ChEMBL document CHEMBL3612014, “Discovery of Tyk2 inhibitors via the virtual site-directed fragment-based drug design” (Bioorg Med Chem Lett, 2015).
Each block holds one compound with its values, some of them ahead of it.

Legend:
[1] = target: T1, Non-receptor tyrosine-protein kinase TYK2 (Homo sapiens, UniProt P29597); assay: Inhibition of Tyk2 (unknown origin) at 10 uM
[2] = Oral bioavailability in Sprague-Dawley rat at 5 mg/kg; assay type: ADME, organism-based; settings: in vivo
[3] = target: T1, Non-receptor tyrosine-protein kinase TYK2; assay: Inhibition of Tyk2 (unknown origin)
[4] = Mean residence time in Sprague-Dawley rat at 5 mg/kg, iv; assay type: ADME, organism-based; settings: in vivo
[5] = AUC (0 to infinity) in Sprague-Dawley rat at 5 mg/kg, po; assay type: ADME, organism-based; parameters: dose 5 mg/kg, time infinity, route oral; settings: in vivo
[6] = target: T2, Tyrosine-protein kinase JAK3 (Homo sapiens) (UniProt P52333); assay: Inhibition of JAK3 (unknown origin) at 10 uM
T2 sequence (whole entry): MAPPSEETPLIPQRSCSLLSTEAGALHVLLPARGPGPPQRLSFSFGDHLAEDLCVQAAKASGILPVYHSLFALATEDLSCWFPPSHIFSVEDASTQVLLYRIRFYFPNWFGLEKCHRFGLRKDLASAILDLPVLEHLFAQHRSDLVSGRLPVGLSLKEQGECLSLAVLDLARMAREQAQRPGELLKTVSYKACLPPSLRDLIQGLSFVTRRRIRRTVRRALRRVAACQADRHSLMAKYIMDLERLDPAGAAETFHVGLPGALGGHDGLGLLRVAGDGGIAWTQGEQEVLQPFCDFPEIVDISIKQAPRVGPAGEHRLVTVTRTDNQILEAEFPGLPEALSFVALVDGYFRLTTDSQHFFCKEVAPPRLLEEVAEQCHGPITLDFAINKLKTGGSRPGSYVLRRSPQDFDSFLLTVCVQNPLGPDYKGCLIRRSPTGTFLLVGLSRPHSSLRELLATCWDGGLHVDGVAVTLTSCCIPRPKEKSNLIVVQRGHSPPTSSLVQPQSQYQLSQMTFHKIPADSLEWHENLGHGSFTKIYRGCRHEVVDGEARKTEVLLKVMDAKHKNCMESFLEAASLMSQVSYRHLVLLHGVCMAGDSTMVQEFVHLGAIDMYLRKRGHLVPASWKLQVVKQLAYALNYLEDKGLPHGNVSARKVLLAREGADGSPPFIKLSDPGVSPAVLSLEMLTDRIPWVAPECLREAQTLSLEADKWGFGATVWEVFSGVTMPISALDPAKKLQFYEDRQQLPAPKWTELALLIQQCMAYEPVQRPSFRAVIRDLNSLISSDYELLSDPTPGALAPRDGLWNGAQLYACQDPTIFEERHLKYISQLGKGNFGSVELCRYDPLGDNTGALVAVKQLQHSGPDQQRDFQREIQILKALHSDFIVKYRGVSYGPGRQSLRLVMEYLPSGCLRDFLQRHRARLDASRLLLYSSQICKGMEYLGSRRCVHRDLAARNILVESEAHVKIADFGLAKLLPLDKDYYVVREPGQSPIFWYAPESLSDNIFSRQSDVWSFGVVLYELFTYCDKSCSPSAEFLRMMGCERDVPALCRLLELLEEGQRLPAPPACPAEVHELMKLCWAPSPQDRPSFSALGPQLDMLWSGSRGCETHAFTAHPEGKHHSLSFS

[7] = Tmax in Sprague-Dawley rat at 5 mg/kg, iv; assay type: ADME, organism-based; settings: in vivo
[8] = Mean residence time in Sprague-Dawley rat at 5 mg/kg, po; assay type: ADME, organism-based; settings: in vivo
[9] = Cmax in Sprague-Dawley rat at 5 mg/kg, po; assay type: ADME, organism-based; parameters: dose 5 mg/kg, route oral; settings: in vivo
[10] = target: T3, Aurora kinase A (Homo sapiens) (UniProt O14965); assay: Inhibition of aurora-A (unknown origin) at 10 uM
T3 sequence (whole entry): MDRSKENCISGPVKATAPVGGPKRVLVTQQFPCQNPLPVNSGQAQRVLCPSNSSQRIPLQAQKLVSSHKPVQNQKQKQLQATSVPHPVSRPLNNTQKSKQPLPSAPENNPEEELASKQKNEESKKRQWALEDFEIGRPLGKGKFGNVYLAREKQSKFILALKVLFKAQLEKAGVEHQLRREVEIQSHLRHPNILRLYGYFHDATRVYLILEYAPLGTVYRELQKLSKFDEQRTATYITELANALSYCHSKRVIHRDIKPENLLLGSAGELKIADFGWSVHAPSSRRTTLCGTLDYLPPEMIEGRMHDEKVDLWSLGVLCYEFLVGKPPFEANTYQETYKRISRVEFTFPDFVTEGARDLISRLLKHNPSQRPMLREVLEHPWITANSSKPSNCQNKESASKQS

[11] = target: Serine/threonine-protein kinase PAK 4 (Homo sapiens) (UniProt O96013); assay: Inhibition of PAK4 (unknown origin) at 10 uM
Sequence of Serine/threonine-protein kinase PAK 4 (Homo sapiens) (O96013 whole entry, looked up): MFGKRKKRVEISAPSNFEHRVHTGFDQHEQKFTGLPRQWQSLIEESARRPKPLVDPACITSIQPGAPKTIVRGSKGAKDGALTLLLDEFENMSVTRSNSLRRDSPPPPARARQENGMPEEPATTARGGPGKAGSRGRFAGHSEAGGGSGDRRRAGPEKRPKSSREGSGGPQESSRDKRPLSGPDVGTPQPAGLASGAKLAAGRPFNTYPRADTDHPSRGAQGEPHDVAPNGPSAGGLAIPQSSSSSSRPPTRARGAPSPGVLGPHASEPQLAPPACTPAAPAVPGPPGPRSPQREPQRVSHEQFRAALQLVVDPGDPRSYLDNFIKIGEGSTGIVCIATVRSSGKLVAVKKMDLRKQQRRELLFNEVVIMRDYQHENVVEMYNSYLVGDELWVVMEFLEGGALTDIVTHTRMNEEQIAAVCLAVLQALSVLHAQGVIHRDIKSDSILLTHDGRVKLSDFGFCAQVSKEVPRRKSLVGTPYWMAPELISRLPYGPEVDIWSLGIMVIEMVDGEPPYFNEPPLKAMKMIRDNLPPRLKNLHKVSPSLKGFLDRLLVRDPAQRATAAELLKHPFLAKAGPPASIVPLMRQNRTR

[12] = Terminal half life in Sprague-Dawley rat at 5 mg/kg, po; assay type: ADME, organism-based; settings: in vivo, read-out: beta t1/2 (converted)
[13] = Terminal half life in Sprague-Dawley rat at 5 mg/kg, iv; assay type: ADME, organism-based; settings: in vivo, read-out: beta t1/2 (converted)
[14] = AUC (0 to infinity) in Sprague-Dawley rat at 5 mg/kg, iv; assay type: ADME, organism-based; parameters: dose 5 mg/kg, route intravenous, time infinity; settings: in vivo
[15] = Tmax in Sprague-Dawley rat at 5 mg/kg, po; assay type: ADME, organism-based; settings: in vivo
[16] = AUC (0 to t) in Sprague-Dawley rat at 5 mg/kg, iv; assay type: ADME, organism-based; settings: in vivo
[17] = Cmax in Sprague-Dawley rat at 5 mg/kg, iv; assay type: ADME, organism-based; parameters: dose 5 mg/kg, route intravenous; settings: in vivo
[18] = Systemic plasma clearance in Sprague-Dawley rat at 5 mg/kg, iv; assay type: ADME, organism-based
[19] = AUC (0 to t) in Sprague-Dawley rat at 5 mg/kg, po; assay type: ADME, organism-based; settings: in vivo
[20] = target: Tyrosine-protein kinase JAK2 (Homo sapiens) (UniProt O60674); assay: Inhibition of JAK2 (unknown origin) at 10 uM
Sequence of Tyrosine-protein kinase JAK2 (Homo sapiens) (O60674 whole entry): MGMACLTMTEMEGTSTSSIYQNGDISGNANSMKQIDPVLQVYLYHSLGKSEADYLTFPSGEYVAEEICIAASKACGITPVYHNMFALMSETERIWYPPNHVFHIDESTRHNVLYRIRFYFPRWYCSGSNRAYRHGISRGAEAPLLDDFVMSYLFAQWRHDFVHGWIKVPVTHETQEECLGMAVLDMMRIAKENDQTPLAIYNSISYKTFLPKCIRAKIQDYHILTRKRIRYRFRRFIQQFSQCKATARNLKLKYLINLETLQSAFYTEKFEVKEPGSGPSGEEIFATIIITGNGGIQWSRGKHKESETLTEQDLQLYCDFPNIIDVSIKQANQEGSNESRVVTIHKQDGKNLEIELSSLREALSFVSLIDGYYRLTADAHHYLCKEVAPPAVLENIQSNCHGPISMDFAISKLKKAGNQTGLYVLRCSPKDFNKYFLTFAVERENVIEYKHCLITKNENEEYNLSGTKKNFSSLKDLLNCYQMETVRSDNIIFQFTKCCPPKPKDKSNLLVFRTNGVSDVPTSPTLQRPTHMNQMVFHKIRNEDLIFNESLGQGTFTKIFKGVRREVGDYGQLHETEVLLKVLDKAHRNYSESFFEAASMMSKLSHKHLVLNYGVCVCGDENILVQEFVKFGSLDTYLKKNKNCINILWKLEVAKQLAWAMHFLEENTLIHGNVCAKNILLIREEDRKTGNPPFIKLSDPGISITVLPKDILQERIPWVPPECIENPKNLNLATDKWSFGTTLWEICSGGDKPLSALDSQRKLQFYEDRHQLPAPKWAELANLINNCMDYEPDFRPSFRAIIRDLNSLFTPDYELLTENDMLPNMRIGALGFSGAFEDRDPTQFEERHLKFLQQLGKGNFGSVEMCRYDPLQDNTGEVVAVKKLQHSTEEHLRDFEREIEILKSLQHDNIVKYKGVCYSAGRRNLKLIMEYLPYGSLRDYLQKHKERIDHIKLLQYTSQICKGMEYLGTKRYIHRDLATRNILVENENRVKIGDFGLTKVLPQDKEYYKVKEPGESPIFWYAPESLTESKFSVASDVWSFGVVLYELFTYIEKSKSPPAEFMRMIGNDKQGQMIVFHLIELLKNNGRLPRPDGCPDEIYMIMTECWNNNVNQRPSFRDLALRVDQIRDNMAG

[21] = Volume of distribution at steady state in Sprague-Dawley rat at 5 mg/kg, iv; assay type: ADME, organism-based; settings: in vivo, read-out: Vdss
[22] = target: T1, Non-receptor tyrosine-protein kinase TYK2; assay: Inhibition of Tyk2 (unknown origin) at 3 uM
[23] = target: T1, Non-receptor tyrosine-protein kinase TYK2; assay: Inhibition of Tyk2 (unknown origin) at 30 uM
[24] = target: T1, Non-receptor tyrosine-protein kinase TYK2; assay: Inhibition of Tyk2 (unknown origin) at 100 uM

T1 sequence (P29597 whole entry): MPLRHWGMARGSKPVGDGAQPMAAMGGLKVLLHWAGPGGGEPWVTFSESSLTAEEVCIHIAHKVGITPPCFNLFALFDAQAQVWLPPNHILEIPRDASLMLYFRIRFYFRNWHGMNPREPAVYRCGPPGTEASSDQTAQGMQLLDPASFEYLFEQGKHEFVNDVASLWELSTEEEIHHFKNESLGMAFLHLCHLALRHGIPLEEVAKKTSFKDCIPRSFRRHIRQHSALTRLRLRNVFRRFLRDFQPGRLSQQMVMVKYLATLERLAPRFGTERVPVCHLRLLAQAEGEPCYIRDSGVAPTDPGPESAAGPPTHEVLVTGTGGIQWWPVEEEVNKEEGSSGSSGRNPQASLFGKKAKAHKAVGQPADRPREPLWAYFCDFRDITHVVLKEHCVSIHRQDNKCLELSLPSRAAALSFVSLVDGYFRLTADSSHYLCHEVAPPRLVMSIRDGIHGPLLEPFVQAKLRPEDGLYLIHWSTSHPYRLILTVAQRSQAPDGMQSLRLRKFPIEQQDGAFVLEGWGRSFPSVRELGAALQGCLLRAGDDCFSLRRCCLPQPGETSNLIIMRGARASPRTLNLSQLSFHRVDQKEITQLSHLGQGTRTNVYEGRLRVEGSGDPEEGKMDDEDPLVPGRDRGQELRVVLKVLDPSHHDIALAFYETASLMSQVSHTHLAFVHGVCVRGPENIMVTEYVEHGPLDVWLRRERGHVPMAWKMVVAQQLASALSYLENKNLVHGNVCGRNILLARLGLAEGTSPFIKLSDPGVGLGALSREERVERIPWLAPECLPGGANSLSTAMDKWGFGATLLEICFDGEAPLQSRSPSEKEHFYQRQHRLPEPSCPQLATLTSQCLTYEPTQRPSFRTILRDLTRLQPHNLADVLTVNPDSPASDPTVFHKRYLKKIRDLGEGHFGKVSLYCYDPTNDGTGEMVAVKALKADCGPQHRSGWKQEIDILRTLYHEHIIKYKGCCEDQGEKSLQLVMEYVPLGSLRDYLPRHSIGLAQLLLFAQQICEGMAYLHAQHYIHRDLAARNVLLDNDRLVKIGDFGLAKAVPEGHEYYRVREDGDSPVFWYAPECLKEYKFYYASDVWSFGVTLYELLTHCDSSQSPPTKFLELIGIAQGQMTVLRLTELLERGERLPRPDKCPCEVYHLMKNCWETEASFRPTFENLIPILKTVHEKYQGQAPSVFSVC

inhibition [1]: 38%
Structure (SMILES): CC(C)c1nn(-c2ccccc2)cc1-c1nc2cc(Br)cnc2[nH]1

inhibition [1]: < 30%
Structure (SMILES): CC(C)c1n[nH]cc1-c1nc2cc(Br)cnc2[nH]1

bioavailability [2]: 6.07% | IC50 [3]: 10 nM | MRT [4]: 47.4 min | AUC(0-inf) [5]: 90 ng·h/mL | inhibition [6]: > 90% | inhibition [1]: 99% | Tmax [7]: 4.8 min | MRT [8]: 102 min | Cmax [9]: 70 ng/mL | inhibition [10]: > 90% | inhibition [11]: < 50% | half-life [12]: 105 min | half-life [13]: 49.8 min | AUC(0-inf) [14]: 1430 ng·h/mL | Tmax [15]: 19.8 min | AUC(0-t) [16]: 1420 ng·h/mL | Cmax [17]: 1340 ng/mL | clearance [18]: 59 mL/min/kg | AUC(0-t) [19]: 80 ng·h/mL | inhibition [20]: > 90% | Vd [21]: 2.76 L/kg
Structure (SMILES): CC(C)c1nn(C)cc1-c1nc2c(N3CCN(Cc4cccnc4)CC3)c(Br)cnc2[nH]1

inhibition [1]: 83% | inhibition [22]: 60% | inhibition [23]: 92% | inhibition [24]: 97%
Structure (SMILES): CC(C)c1nn(C)cc1-c1nc2cc(Br)cnc2[nH]1
